We go through nine compounds from ChEMBL document CHEMBL1201862, “PubChem BioAssay data set” (2004).

Assay in all cases: NCI tumour cell line growth inhibition, 48 h
Test [1] concerns HCT-15.
Test [2] concerns MDA-N.
The subject of test [3] is SK-MEL-5.
Test [4] relates to EKVX.
In test [5] the test system is SK-MEL-28.
In test [6] the test system is SF-268.
Test [7] deals with MDA-MB-435.
Test [8] has as its system MOLT-4.
The subject of test [9] is HOP-62.
The test system of test [10] is A498.
The test system of test [11] is HOP-92.
Test [12] relates to K562.
In test [13] the test system is RXF 393.
For test [14], the system named is UO-31.
Test [15] has as its system MCF7.
For test [16], the system named is SN12C.
The subject of test [17] is NCI-H226.
In test [18] the test system is UACC-62.
Test [19] deals with BT-549.

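Each compound was tested at five concentrations against cells in 96-well plates for 48 hours. GI50 marks 50% less growth.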 Active and inactive are the calls of the source. Cut-off read from the data, not from the text of the source: active = GI50 up to about 1.1 µM and inactive = higher.

Take `C#CCn1c(=O)c2ccccc2n(CC#C)c1=O`: the GI50 in test [1] was > 10 µM; in test [2], > 10 µM (inactive); in [3], > 10 µM (inactive); in test [4], > 10 µM (inactive); in [5] it was > 10 µM (inactive); in test [6], > 10 µM (inactive). In addition, the GI50 in test [7], in test [8], in test [9], in test [10], in test [11] and in test [12] was > 10 µM (inactive) throughout. Further, the GI50 in test [13], in [14], in test [15], in test [16] and in test [17] was > 10 µM (inactive) throughout.
Consider `CN(C)CCNc1nc(-c2cccs2)cc(-c2cccs2)n1`, for which the GI50 was 15.9 µM in [1]; 15.3 µM (inactive) in test [3]; 15.9 µM (inactive) in test [5]; 19.1 µM (inactive) in [18]; 3 µM (inactive) in [8]; 18.7 µM (inactive) in test [9]. The GI50 in test [10] was 11.9 µM (inactive); in test [11] it was 1.58 µM (inactive); in [12], 17.7 µM (inactive); in [13], 14.6 µM (inactive); in test [14], 11.2 µM (inactive); in [16], 12.9 µM (inactive). Besides, the GI50 in test [17] is 15.9 µM (inactive).
For `COC(=O)C1(NC(=O)C(N)CC(=O)O)C(C)C1C` (stereo not drawn), the GI50 is > 100 µM in test [1]; > 100 µM (inactive) in test [2]; > 100 µM (inactive) in [3]; > 100 µM (inactive) in [4]; > 100 µM (inactive) in test [5]; > 100 µM (inactive) in test [6]. Further, the GI50 in test [18], in test [7], in test [8], in [9], in [10] and in [11] was > 100 µM (inactive) each time. Besides, the GI50 in test [12], in [13], in test [14], in test [15], in test [16] and in [17] was > 100 µM (inactive) in each case.
Consider `O=C(O)C1=C(O)C(C(=O)O)C23CCCCCCCCCCC12C(C(=O)O)C(O)=C3C(=O)O` (stereo not drawn), for which the GI50 is > 100 µM in test [1]; > 100 µM (inactive) in test [3]; > 100 µM (inactive) in test [4]; > 100 µM (inactive) in test [5]; > 100 µM (inactive) in [6]; > 100 µM (inactive) in test [8]. In addition, the GI50 in [11], in test [12], in test [13], in test [14], in test [16] and in [17] was > 100 µM (inactive) throughout.
With `c1ccc2c(c1)[nH]c1c3ccccc3sc21`, the GI50 was > 100 µM in test [1]; > 100 µM (inactive) in [2]; > 100 µM (inactive) in [3]; 26.4 µM (inactive) in test [4]; > 100 µM (inactive) in test [5]; > 100 µM (inactive) in test [6]. Moreover, the GI50 in test [18] was > 100 µM (inactive); in test [7], 99.1 µM (inactive); in test [8], > 100 µM (inactive); in test [9], > 100 µM (inactive); in [10], > 100 µM (inactive); in [11], > 100 µM (inactive). The GI50 in [12] was > 100 µM (inactive); in [13], 26.5 µM (inactive); in test [14], > 100 µM (inactive); in test [15], 24.9 µM (inactive); in [16], > 100 µM (inactive); in test [17], > 100 µM (inactive).
Regarding `O=C1OC(Cl)C(N=P(c2ccccc2)(c2ccccc2)c2ccccc2)=C1Cl` (stereo not drawn), the GI50 in test [3], in test [4], in [5], in [6], in [18] and in test [8] was > 100 µM (inactive) each time. Moreover, the GI50 in test [9], in test [10], in test [11], in test [12], in [14] and in test [16] was > 100 µM (inactive) throughout. The GI50 in [17] was > 100 µM (inactive).
With `Cc1ccc(Nc2nc(=O)c3c4ccccc4n(C(=O)OC(C)(C)C)c3s2)cc1`, the GI50 is 22.3 µM in [1]; 13.2 µM (inactive) in test [3]; 29.1 µM (inactive) in test [4]; 44.9 µM (inactive) in [5]; 20.6 µM (inactive) in test [6]; 18.5 µM (inactive) in test [18]. In addition, the GI50 in test [7] was 4.9 µM (inactive); in test [8], 53 µM (inactive); in [9], 27.9 µM (inactive); in [10], 39.1 µM (inactive); in test [11], 23.1 µM (inactive); in [12] it was 27.4 µM (inactive). Moreover, the GI50 in test [14] was 5.9 µM (inactive); in [19], 26.6 µM (inactive).
`NC(=S)N/N=C(\Cc1nc2ccc(Cl)cc2nc1O)C(=O)Nc1ccc(Cl)cc1`: the GI50 in test [1] was > 100 µM; in test [3], > 100 µM (inactive); in test [4], 76 µM (inactive); in test [5], > 100 µM (inactive); in test [6], > 100 µM (inactive); in test [18] it was > 100 µM (inactive). In addition, the GI50 in test [7] is > 100 µM (inactive); in test [8] it was > 100 µM (inactive); in [9], > 100 µM (inactive); in test [11] it was 40.3 µM (inactive); in test [13], > 100 µM (inactive); in test [14] it was 40 µM (inactive). Further, the GI50 in [15] was > 100 µM (inactive); in test [16], > 100 µM (inactive); in test [19], > 100 µM (inactive); in [17], 96.2 µM (inactive).
On to `O=c1c2cc([N+](=O)[O-])ccc2[nH]n1Cc1ccccn1`, for which the GI50 is > 100 µM in test [1]; > 100 µM (inactive) in test [2]; > 100 µM (inactive) in test [3]; > 100 µM (inactive) in [4]; > 100 µM (inactive) in [5]; > 100 µM (inactive) in test [6]. Also, the GI50 in test [18], in test [7], in test [8], in test [9], in test [10] and in [11] was > 100 µM (inactive) each time. Moreover, the GI50 in test [12], in test [13], in [14], in test [16] and in test [17] was > 100 µM (inactive) in each case.
